Columns and labels:
Norovirus = assay: Antiviral activity against Norovirus infected in human HG23 cells assessed as inhibition of viral replication after 24 hrs; type: functional; conditions: HG23, 24 h, read-out: ED50 (the source's name)
[1] = Cytotoxicity against human HG23 cells after 48 hrs; type: cell-based; conditions: read-out: TD50
[2] = Therapeutic index, ratio of TD50 for HG23 cells to ED50 for Norovirus infected in human HG23 cells; type: cell-based; conditions: read-out: Ratio TD50/ED50

Structure (SMILES)	EC50 (Norovirus)	CC50 at 48 h [1]	selectivity ratio [2]
COc1ccc(CN2CC(C(=O)N3CCN(Cc4ccccc4)CC3)CC2=O)cc1 (stereo not drawn)	7.2 µM	155 µM	–
COc1ccc(CC(=O)N2CCN(Cc3ccccc3)CC2)cc1	> 20 µM	–	–
O=C1CC(C(=O)N2CCN(Cc3ccccc3)CC2)CN1Cc1ccco1 (stereo not drawn)	> 20 µM	–	–
O=C(N1CCOCC1)N1CCN(Cc2ccccc2)CC1	> 20 µM	–	–
O=C(c1ccco1)N1CCN(Cc2ccccc2)CC1	> 20 µM	–	–
CCCOc1ccc(C(=O)N2CCN(Cc3ccccc3)CC2)cc1	7.8 µM	95.3 µM	–
O=C(c1cccc(F)c1)N1CCN(Cc2ccccc2)CC1	> 20 µM	–	–
O=C(c1cn(Cc2cccc(F)c2)nn1)N1CCN(Cc2ccccc2)CC1	> 20 µM	–	–
O=C(Cc1ccc(Cl)cc1)N1CCN(Cc2cccc(Oc3ccccc3)c2)CC1	> 20 µM	–	–
O=C(c1cccc(Cl)c1)N1CCN(Cc2ccccc2)CC1	> 20 µM	–	–
O=C1CC(C(=O)N2CCN(Cc3ccccc3)CC2)CN1CCc1ccccc1 (stereo not drawn)	> 20 µM	–	–
CCCCS(=O)(=O)N1CCN(Cc2cccc(Oc3ccccc3)c2)CC1	6.7 µM	121 µM	18
O=C(c1cn(Cc2ccc(F)cc2)nn1)N1CCN(Cc2ccccc2)CC1	> 20 µM	–	–
O=C(c1cn(CSc2ccccc2)nn1)N1CCN(Cc2ccccc2)CC1	> 20 µM	–	–
O=C1CC(C(=O)N2CCN(Cc3ccccc3)CC2)CN1Cc1ccccc1 (stereo not drawn)	> 20 µM	–	–
COc1ccc(Cn2cc(C(=O)N3CCN(Cc4ccccc4)CC3)nn2)cc1	8.5 µM	62.5 µM	–
COC(=O)c1ccc(Cn2cc(C(=O)N3CCN(Cc4ccccc4)CC3)nn2)cc1	> 20 µM	–	–

The next lines start with results.

EC50 (Norovirus)	Structure (SMILES)	CC50 at 48 h [1]	selectivity ratio [2]
> 20 µM	O=C(c1ccc(O)cc1)N1CCN(Cc2cccc(Oc3ccccc3)c2)CC1	–	–
5.6 µM	c1ccc(Oc2cccc(CN3CCN(Cc4cccc(Oc5ccccc5)c4)CC3)c2)cc1	75.4 µM	–
> 20 µM	O=C(c1ccc(Oc2ccccc2)cc1)N1CCN(Cc2ccccc2)CC1	–	–
> 20 µM	CC(C)Oc1ccc(C(=O)N2CCN(Cc3cccc(Oc4ccccc4)c3)CC2)cc1	–	–
12.5 µM	N#Cc1ccc(S(=O)(=O)N2CCN(Cc3cccc(Oc4ccccc4)c3)CC2)cc1	119 µM	–
3.8 µM	O=C(c1ccc(Oc2ccccc2)cc1)N1CCN(Cc2cccc(Oc3ccccc3)c2)CC1	23.5 µM	–
5.5 µM	O=C(c1cccc(Oc2ccccc2)c1)N1CCN(Cc2cccc(Oc3ccccc3)c2)CC1	15.6 µM	–
2.8 µM	O=C(c1cccc(Oc2ccccc2)c1)N1CCN(Cc2ccccc2)CC1	11.4 µM	–
> 20 µM	N#Cc1ccc(C(=O)N2CCN(Cc3cccc(Oc4ccccc4)c3)CC2)cc1	–	–
8.2 µM	O=C(c1ccccc1Oc1ccccc1)N1CCN(Cc2ccccc2)CC1	18.5 µM	–
> 20 µM	Oc1cccc(CN2CCN(Cc3cccc(Oc4ccccc4)c3)CC2)c1	–	–
4.5 µM	COc1ccc(C(=O)N2CCN(Cc3cccc(Oc4ccccc4)c3)CC2)cc1	25.4 µM	–
8.5 µM	CC(C)Oc1ccc(CN2CCN(Cc3cccc(Oc4ccccc4)c3)CC2)cc1	31.5 µM	–
